Assay results taken from ChEMBL document CHEMBL1150494, “Inhibitory effect on HT-1080 tumor cell invasion in vitro using 9-(2-hydroxyethyl)adenine 2-phosphates” (1997).

Experiments:
HT-1080 [1] = assay: In vitro inhibitory activity against HT1080 tumor cell invasion using Matrigel (MG) at a concentration of 100 uM; assay type: functional, Homo sapiens
[2] = target: Matrix metalloproteinase-9 (Homo sapiens) (UniProt P14780); assay: Inhibition of collagen IV degradation by matrix metalloprotease-9 at 100 uM
Sequence of Matrix metalloproteinase-9 (Homo sapiens) (P14780 whole entry): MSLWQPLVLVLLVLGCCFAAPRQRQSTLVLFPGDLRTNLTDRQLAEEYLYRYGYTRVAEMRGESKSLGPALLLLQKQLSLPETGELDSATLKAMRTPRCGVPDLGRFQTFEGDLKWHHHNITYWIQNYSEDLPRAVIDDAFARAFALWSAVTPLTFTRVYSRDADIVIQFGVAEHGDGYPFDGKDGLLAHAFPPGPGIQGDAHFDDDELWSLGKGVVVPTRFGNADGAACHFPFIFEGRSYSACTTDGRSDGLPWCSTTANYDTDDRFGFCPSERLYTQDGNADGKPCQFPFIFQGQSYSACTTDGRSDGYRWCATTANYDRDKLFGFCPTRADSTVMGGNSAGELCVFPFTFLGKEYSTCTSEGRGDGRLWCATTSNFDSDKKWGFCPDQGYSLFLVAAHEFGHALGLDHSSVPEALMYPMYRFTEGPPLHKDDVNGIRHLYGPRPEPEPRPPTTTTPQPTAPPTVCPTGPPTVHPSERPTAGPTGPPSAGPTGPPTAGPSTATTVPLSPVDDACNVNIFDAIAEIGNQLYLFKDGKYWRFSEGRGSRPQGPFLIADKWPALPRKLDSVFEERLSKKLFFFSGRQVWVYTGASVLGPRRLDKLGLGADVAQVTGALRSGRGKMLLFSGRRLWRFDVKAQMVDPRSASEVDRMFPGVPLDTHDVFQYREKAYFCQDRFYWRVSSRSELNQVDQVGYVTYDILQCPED

[3] = target: Matrix metalloproteinase-9 (Homo sapiens) (UniProt P14780); assay: Inhibition of collagen IV degradation by matrix metalloprotease-9 at 10 uM
HT-1080 [4] = assay: In vitro inhibitory activity against HT1080 tumor cell invasion using Matrigel (MG) at a concentration of 10 uM; assay type: functional, Homo sapiens

Inhibition ratio [2] [%] | Inhibition ratio [3] [%] | SMILES | Inhibition ratio (HT-1080 [1]) [%] | Inhibition ratio (HT-1080 [4]) [%]
41 | 23 | Nc1ncnc2c1nc(Br)n2CCOP(=O)(O)O | ~41 | ~23
57 | 32 | Nc1ncnc2c1ncn2CCOP(=O)(O)O | 53 | 46
69 | 53 | Nc1ncnc2c1ncn2CCOP(=O)(O)OP(=O)(O)OP(=O)(O)O | ~36 | ~35
18 | 2 | Nc1ncnc2c1ncn2CCO | ~50 | ~2
12 |  | O=P(O)(O)OCCn1cnc2c(Cl)ncnc21 | ~12 | 
55 | 46 | CNc1ncnc2c1ncn2CCOP(=O)(O)O | ~54 | ~46
